Source: PubChem BioAssay AID248 (DTP/NCI, 2004)
Several values for one entry are separate records, joined by “and”; a condition that tells them apart may be missing. Equal values may be shown once. Inconclusive results and toxic doses are left out. Cut-off read from the data, not from the text of the source: active = T/C of 150% or more; inactive = T/C below 125%. Square brackets hold non-standard residues; d marks the D form. Peptide text beside a SMILES is read from it. * marks the point of attachment. Cbz = O=C(OCc1ccccc1)*; Sar = CNCC(=O)O

Tested on: L1210 leukemia ip in BDF1 mice, survival T/C
Experiment: NCI In Vivo Anticancer Drug Screen. Data for tumor model L1210 Leukemia (intraperitoneal) in B6D2F1 (BDF1) mice
Conditions: higher = longer survival
Summary of the method: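 Transplantable tumor model; survival measured in treated vs vehicle control mice. Value = treated/control.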

[1] = endpoint: mean survival time, dose: 100.0 mg/kg/injection, schedule: Q01DX009 (ip), vehicle: Klucel (hydroxypropylcellulose) (HPC)
[2] = endpoint: mean survival time, dose: 100.0 mg/kg/injection, schedule: Q04DX003 (ip), vehicle: Klucel (hydroxypropylcellulose) (HPC)
[3] = endpoint: mean survival time, dose: 200.0 mg/kg/injection, schedule: Q01DX009 (ip), vehicle: Klucel (hydroxypropylcellulose) (HPC)
[4] = endpoint: mean survival time, dose: 200.0 mg/kg/injection, schedule: Q04DX003 (ip), vehicle: Klucel (hydroxypropylcellulose) (HPC)
[5] = endpoint: mean survival time, dose: 400.0 mg/kg/injection, schedule: Q04DX003 (ip), vehicle: Klucel (hydroxypropylcellulose) (HPC)
[6] = endpoint: mean survival time, dose: 100.0 mg/kg/injection, schedule: Q01DX009 (ip), vehicle: saline with Tween-80
[7] = endpoint: mean survival time, dose: 200.0 mg/kg/injection, schedule: Q01DX009 (ip), vehicle: saline with Tween-80
[8] = endpoint: mean survival time, dose: 100.0 mg/kg/injection, schedule: Q04DX002 (ip), vehicle: Klucel (hydroxypropylcellulose) (HPC)
[9] = endpoint: mean survival time, dose: 200.0 mg/kg/injection, schedule: Q04DX002 (ip), vehicle: Klucel (hydroxypropylcellulose) (HPC)
[10] = endpoint: mean survival time, dose: 100.0 mg/kg/injection, schedule: Q04DX003 (ip), vehicle: saline with Tween-80
[11] = endpoint: mean survival time, dose: 200.0 mg/kg/injection, schedule: Q04DX003 (ip), vehicle: saline with Tween-80
[12] = endpoint: mean survival time, dose: 100.0 mg/kg/injection, schedule: Q04DX003 (ip), vehicle: saline
[13] = endpoint: mean survival time, dose: 200.0 mg/kg/injection, schedule: Q04DX003 (ip), vehicle: saline
[14] = endpoint: mean survival time, dose: 400.0 mg/kg/injection, schedule: Q04DX003 (ip), vehicle: saline

Measured: T/C

O=C1OCCN1NCc1ccc([N+](=O)[O-])o1
inactive: endpoint: mean survival time, dose: 100.0 mg/kg/injection, schedule: Q01DX001 (ip), vehicle: saline 92 % of control | endpoint: mean survival time, dose: 200.0 mg/kg/injection, schedule: Q01DX001 (ip), vehicle: saline 103 % of control | endpoint: mean survival time, dose: 400.0 mg/kg/injection, schedule: Q01DX001 (ip), vehicle: saline 101 % of control

Cc1ccc(NC(=O)Nc2ccc(Cl)c(Cl)c2)c(C)c1
inactive: [1] 90 % of control | [2] 89 % of control | [3] 90 % of control | [4] 89 % of control | [5] 89 % of control

CCc1ccccc1NC(=O)Nc1ccccc1OC
inactive: [1] 92 % of control | [2] 93 % of control | [3] 94 % of control | [4] 93 % of control | endpoint: mean survival time, dose: 400.0 mg/kg/injection, schedule: Q01DX009 (ip), vehicle: Klucel (hydroxypropylcellulose) (HPC) 100 % of control | [5] 90 % of control

Cc1ccc(C)[nH]1
inactive: endpoint: mean survival time, dose: 5.0 mg/kg/injection, schedule: Q01DX009 (ip), vehicle: saline with Tween-80 96 % of control | endpoint: mean survival time, dose: 5.0 mg/kg/injection, schedule: Q04DX003 (ip), vehicle: saline with Tween-80 93 % of control | endpoint: mean survival time, dose: 10.0 mg/kg/injection, schedule: Q01DX009 (ip), vehicle: saline with Tween-80 94 % of control | endpoint: mean survival time, dose: 10.0 mg/kg/injection, schedule: Q04DX003 (ip), vehicle: saline with Tween-80 98 % of control | endpoint: mean survival time, dose: 20.0 mg/kg/injection, schedule: Q01DX009 (ip), vehicle: saline with Tween-80 100 % of control | endpoint: mean survival time, dose: 20.0 mg/kg/injection, schedule: Q04DX003 (ip), vehicle: saline with Tween-80 93 % of control

CC(C)CCNCC(C)(C)OC(=O)c1ccc(N)cc1
inactive: endpoint: mean survival time, dose: 10.0 mg/kg/injection, schedule: Q01DX001 (ip), vehicle: saline 112 % of control | endpoint: mean survival time, dose: 20.0 mg/kg/injection, schedule: Q01DX001 (ip), vehicle: saline 100 % of control | endpoint: mean survival time, dose: 40.0 mg/kg/injection, schedule: Q01DX001 (ip), vehicle: saline 102 % of control

CCCCCCCCC(=O)N1CC1
inactive: endpoint: mean survival time, dose: 50.0 mg/kg/injection, schedule: Q01DX009 (ip), vehicle: Klucel (hydroxypropylcellulose) (HPC) 94 % of control | endpoint: mean survival time, dose: 50.0 mg/kg/injection, schedule: Q04DX003 (ip), vehicle: Klucel (hydroxypropylcellulose) (HPC) 105 % of control | [1] 94 % of control | [2] 96 % of control | [3] 96 % of control | [4] 98 % of control

CCC1=C(C[C@H]2NCCc3cc(OC)c(OC)cc32)C[C@H]2c3cc(OC)c(OC)cc3CCN2C1
inactive: endpoint: mean survival time, dose: 1.0 mg/kg/injection, schedule: Q01DX005 (ip), vehicle: saline 111 % of control | endpoint: mean survival time, dose: 1.0 mg/kg/injection, schedule: Q03HX024 (ip), vehicle: saline 111 % of control | endpoint: mean survival time, dose: 2.0 mg/kg/injection, schedule: Q01DX005 (ip), vehicle: saline 107 % of control and 108 % of control | endpoint: mean survival time, dose: 2.0 mg/kg/injection, schedule: Q01DX009 (ip), vehicle: saline 103 % of control | endpoint: mean survival time, dose: 2.0 mg/kg/injection, schedule: Q03HX016 (ip), vehicle: saline 111 % of control | endpoint: mean survival time, dose: 2.0 mg/kg/injection, schedule: Q04DX003 (ip), vehicle: saline 103 % of control and 104 % of control | endpoint: mean survival time, dose: 2.32 mg/kg/injection, schedule: Q01DX005 (ip), vehicle: saline 117 % of control | endpoint: mean survival time, dose: 4.0 mg/kg/injection, schedule: Q01DX005 (ip), vehicle: saline 119 % of control [middle of 4 runs] | endpoint: mean survival time, dose: 4.0 mg/kg/injection, schedule: Q01DX005 (sc), vehicle: saline 122 % of control | endpoint: mean survival time, dose: 4.0 mg/kg/injection, schedule: Q01DX009 (ip), vehicle: saline 103 % of control and 119 % of control | endpoint: mean survival time, dose: 4.0 mg/kg/injection, schedule: Q04DX003 (ip), vehicle: saline 107 % of control and 105 % of control and 108 % of control | endpoint: mean survival time, dose: 4.64 mg/kg/injection, schedule: Q01DX005 (ip), vehicle: saline 116 % of control | endpoint: mean survival time, dose: 4.64 mg/kg/injection, schedule: Q04DX003 (ip), vehicle: saline 106 % of control | endpoint: mean survival time, dose: 8.0 mg/kg/injection, schedule: Q01DX005 (oral), vehicle: saline 102 % of control | endpoint: mean survival time, dose: 8.0 mg/kg/injection, schedule: Q01DX005 (sc), vehicle: saline 119 % of control | endpoint: mean survival time, dose: 8.0 mg/kg/injection, schedule: Q01DX009 (ip), vehicle: saline 108 % of control | endpoint: mean survival time, dose: 8.0 mg/kg/injection, schedule: Q04DX003 (ip), vehicle: saline 111 % of control [middle of 4 runs] | endpoint: mean survival time, dose: 9.28 mg/kg/injection, schedule: Q04DX003 (ip), vehicle: saline 94 % of control | endpoint: mean survival time, dose: 16.0 mg/kg/injection, schedule: Q01DX005 (oral), vehicle: saline 116 % of control | endpoint: mean survival time, dose: 16.0 mg/kg/injection, schedule: Q01DX005 (sc), vehicle: saline 105 % of control | endpoint: mean survival time, dose: 16.0 mg/kg/injection, schedule: Q08DX002 (ip), vehicle: saline 120 % of control | endpoint: mean survival time, dose: 32.0 mg/kg/injection, schedule: Q01DX001 (sc), vehicle: saline 110 % of control | endpoint: mean survival time, dose: 37.12 mg/kg/injection, schedule: Q04DX003 (ip), vehicle: saline 108 % of control | endpoint: mean survival time, dose: 64.0 mg/kg/injection, schedule: Q01DX001 (sc), vehicle: saline 121 % of control | endpoint: mean survival time, dose: 64.0 mg/kg/injection, schedule: Q04DX003 (ip), vehicle: saline 102 % of control | endpoint: median survival time, dose: 4.0 mg/kg/injection, schedule: Q04DX003 (ip), vehicle: saline 102 % of control | endpoint: median survival time, dose: 8.0 mg/kg/injection, schedule: Q04DX003 (ip), vehicle: saline 107 % of control | endpoint: median survival time, dose: 16.0 mg/kg/injection, schedule: Q04DX003 (ip), vehicle: saline 110 % of control

Nc1ccc(S(=O)(=O)Nc2ccc([N+](=O)[O-])cc2)cc1
inactive: endpoint: mean survival time, dose: 25.0 mg/kg/injection, schedule: Q01DX009 (ip), vehicle: saline with Tween-80 98 % of control | endpoint: mean survival time, dose: 50.0 mg/kg/injection, schedule: Q01DX009 (ip), vehicle: saline with Tween-80 93 % of control | [6] 98 % of control | [7] 110 % of control | endpoint: mean survival time, dose: 400.0 mg/kg/injection, schedule: Q01DX009 (ip), vehicle: saline with Tween-80 100 % of control

O=S1(=O)CC(Cl)C(I)C1 (stereo unspecified)
inactive: [6] 102 % of control | [7] 109 % of control

c1ccc(-c2nccnc2-c2ccccc2)cc1
inactive: [8] 93 % of control | [9] 107 % of control | endpoint: mean survival time, dose: 400.0 mg/kg/injection, schedule: Q04DX002 (ip), vehicle: Klucel (hydroxypropylcellulose) (HPC) 111 % of control

CCOC(=O)C1C=CCCC1 (stereo unspecified)
inactive: [10] 91 % of control | [11] 102 % of control | endpoint: mean survival time, dose: 400.0 mg/kg/injection, schedule: Q04DX003 (ip), vehicle: saline with Tween-80 94 % of control

S=P(c1ccccc1)(N1CCCCC1)N1CCCCC1
inactive: [12] 97 % of control | [13] 93 % of control

COC(=O)CN(C)C(=O)CNC(=O)OCc1ccccc1 (Cbz-Gly-[Sar]-OMe)
inactive: [12] 97 % of control | [13] 90 % of control | [14] 100 % of control

Nc1cccc2ncccc12
inactive: [12] 104 % of control | [13] 101 % of control | [14] 103 % of control

CN(C/C=C/CN(C)P(=O)(N1CC1)N1CC1)P(=O)(N1CC1)N1CC1
inactive: endpoint: mean survival time, dose: 6.25 mg/kg/injection, schedule: Q01DX009 (ip), vehicle: saline 107 % of control

O=C(Cl)c1ccc([N+](=O)[O-])cc1
inactive: [10] 102 % of control | [11] 101 % of control

CCc1nc(NN)nc(CC)c1-c1ccccc1O
inactive: [8] 105 % of control | [9] 91 % of control

CC(=O)Nc1c(Cl)cc(-c2ccc(F)cc2)cc1Cl
inactive: endpoint: mean survival time, dose: 15.0 mg/kg/injection, schedule: Q01DX001 (ip), vehicle: carboxymethylcellulose (CMC) 96 % of control | endpoint: mean survival time, dose: 30.0 mg/kg/injection, schedule: Q01DX001 (ip), vehicle: carboxymethylcellulose (CMC) 94 % of control | endpoint: mean survival time, dose: 60.0 mg/kg/injection, schedule: Q01DX001 (ip), vehicle: carboxymethylcellulose (CMC) 98 % of control

COc1ccc(C(CC(=O)c2ccccc2)SCCN2CCOCC2)cc1 (stereo unspecified)
inactive: [10] 95 % of control | [11] 99 % of control

CC(O)C(O)C(=O)NN (stereo unspecified)
inactive: endpoint: mean survival time, dose: 50.0 mg/kg/injection, schedule: Q01DX009 (ip), vehicle: saline 91 % of control | endpoint: mean survival time, dose: 100.0 mg/kg/injection, schedule: Q01DX009 (ip), vehicle: saline 98 % of control | endpoint: mean survival time, dose: 200.0 mg/kg/injection, schedule: Q01DX009 (ip), vehicle: saline 98 % of control
